Measured values from US6338296B1, “Release device for slowly releasing sprout inhibitor into packages of potatoes” (priority 1996, dated 2002).

Test system: potatoes
Assay: sprout inhibition in a ventilated package of potatoes with a pouch of silica gel carrying 1,4-DMN
Assay type: in vivo, potato
Text: A package containing ten pounds of potatoes (approximately 5 kg) can be treated according to the instant invention with about 5 grams of silica gel contacted with 2 grams of 1,4-DMN. The substantially saturated silica gel may be placed in a pouch made of cotton fabric having a tight weave. The weave is sufficiently tight that the minute, generally less than 0.5 mm and often less than 0.2 mm, particles are retained in the fabric pouch.
The potatoes, in a plastic bag with numerous ventilation holes, may be allowed to be in a storage room without air conditioning. A single pouch may be placed in the bag with the potatoes.
For example, amounts of DMN from about 0.02 gram to about 1.0 gram per pound of potatoes (˜0.5 kg) may be effectively used. For various reasons, lower amounts are desirable, consistent with effectiveness for the amount of potatoes, volume of voids, length of residence time of the potatoes in the package and range of temperatures to be experienced.

SMILES: Cc1ccc(C)c2ccccc12 [1,4-DMN, 1,4-dimethyl naphthalene]
- preclusion of sprouting (0.2 grams of 1,4-DMN per one pound (~0.5 kg) of potatoes): adequately precludes sprouting
- sprouting after 30 days (ten pounds of potatoes in ventilated plastic bag, one cotton pouch with about 5 grams silica gel and 2 grams 1,4-DMN, unconditioned store room, 30 days): No significant sprouting
